# Experimental data reported in US20240122938A1, “METHODS AND COMPOSITIONS FOR TREATING UVEAL MELANOMA” (INSERM (INSTITUT NATIONAL DE LA SANTÉ ET DE LA RECHERCHE …, priority 2019, published 2024).
# Assays:
# [1] = system: Mel270 uveal melanoma cells; test: Mitochondrial membrane potential by TMRE staining; assay type: cell-based, human; conditions: Mel270 cells
# Protocol: (§1) FIG. 1. ABT-263 induces apoptosis of uveal melanoma cells. Detection of the mitochondrial membrane potential using TMRE staining in Mel270 and OMM1 uveal melanoma cells exposed to ABT-263 3 μM or 5 μM for 48 h in the absence or presence of QVD-OPh 20 μM.
# [2] = system: OMM1 uveal melanoma cells; test: Mitochondrial membrane potential by TMRE staining; assay type: cell-based, human; conditions: OMM1 cells
# Protocol: as §1
# [3] = system: PARP, caspase 9 and caspase 3 in primary and metastatic uveal melanoma cells; test: Western blot of PARP and caspases; assay type: cell-based, human; conditions: pretreatment with pan caspase inhibitor
# [4] = system: ER stress molecules in Mel270 cells; test: Western blot of ER stress molecules; assay type: cell-based, human
# Protocol: Western blot of ER stress molecules in Mel270 cells treated with ABT-263 5 μM in the absence or presence of QVD-OPh 20 μM. Representative western blot are shown.
# (§2) Western blotting was performed as previously described 25,26. Briefly, cell lysates (30 μg) were separated using SDS-PAGE, transferred onto a PVDF membrane and subsequently exposed to the appropriate antibodies, anti-BCL2 (ms-123-PO) was from neomarker, anti-caspase 3 (#610323) was from BD, anti-BAX (#8429) was from sigma, anti-PARP (#9542), anti-BCL-XL (#2762), anti-caspase 9 (#9502) and anti-PUMA (#4976) were from Cell Signaling Technology Inc, anti-MCL1 (#sc-819), anti-NOXA (#56169), and anti-HSP90 (#sc-13119) were from Santa Cruz biotechnology. The proteins were visualized using the ECL system (Amersham).
# [5] = system: panel of human uveal melanoma cell lines; test: Cell death by Annexin V/DAPI staining with qVD; assay type: cell-based; conditions: all cell lines
# Protocol: (§3) Cells were seeded at a density of 100 000 cells/well, in 6-well plate and treated with ABT-263 for indicated time. Cells were harvested using accutase enzyme, washed twice with ice-cold phosphate-buffered saline, resuspended in a buffer (Hepes 250 mM, NaCl 150 mM, KCl 5 mM, MgCl2 2 mM, CaCl2) 2 mM) with DAPI (1 μg/ml) and Annexin V-Alexa Fluor 647 conjugate (1/100) and incubated for 15 minutes at room temperature (25° C.) in the dark. Samples were immediately analyzed by a flow cytometer (MACS QUANT) using a laser at 405 nm excitation with a bandpass filter at 425 nm and 475 nm for DAPI detection and a laser at 635 nm excitation with a bandpass filter at 650 nm and 665 nm for Alexa Fluor 647 dye. Annexin and DAPI mono- or double positive cells were counted as dead cells.
# [6] = system: OMM1 cells; test: Cell proliferation assay; assay type: cell-based, human
# Protocol: (§4) Human uveal melanoma cell lines and short-term cultures derived from different patients with metastatic malignant melanoma cells were grown in DMEM supplemented with 7% FBS at 37° C. in a humidified atmosphere containing 5% CO2. Lipofectamine™ RNAiMAX and opti-MEM medium were purchased from Invitrogen (San Diego, CA, USA). ABT-263 was obtained from Euromedex and qVD from Clinisciences.
# [7] = system: ER stress molecules in metastatic human uveal melanoma cells; test: Western blot of ER stress molecules; assay type: cell-based; conditions: OMM1
# Protocol: as §2, with “(Amersham). The western blots shown are representative of at least 3 independent experiments.” for “(Amersham).”
# [8] = system: OMM2,5 metastatic melanoma cells; test: Cell proliferation assay; assay type: cell-based, human
# Protocol: as §4
# [9] = system: primary melanoma cells; test: Cell proliferation assay; assay type: cell-based, human; conditions: data not shown
# Protocol: as §4
# [10] = system: Mel270 cells; test: Cell death / alive cells by Annexin V/DAPI FACS; assay type: cell-based, human; conditions: GSK2606414 5 μM, 48 h
# Protocol: FIG. 5: PERK dampens ABT-263 killing activity. (A) Q-PCR analysis of PERK level in Mel270 uveal melanoma cells treated with control (siCtl) or PERK (siPERK) siRNA for 48 hr. (B) Mel270 cells were treated with control (siCtl) or PERK (siPERK) siRNA for 48 hrs before being exposed to ABT-263 3 μM for 48 hr. FACS analyses of Annexin V/DAPI double staining in […] indicate alive (white) or dead (early, late apoptosis and necrosis in light grey) cells. (C) Mel270 cells were treated with ABT-263 5 μM or GSK2606414 5 μM alone or in combination for 48 h.
# as §3
# [11] = system: 92.1 cells; test: Cell death / apoptosis; assay type: cell-based, human; conditions: data not shown
# Protocol: as §3
compound,measurement,setting,value
CC(C)[C@H](NC(=O)c1ccc2ccccc2n1)C(=O)N[C@@H](CC(=O)O)C(=O)COc1c(F)cccc1F [qVD],effect of qVD on mitochondrial membrane depolarization after ABT-263,[1],did not prevent it
same,effect of qVD on mitochondrial membrane depolarization after ABT-263,[2],prevented mitochondrial membrane depolarization
same,PARP and caspase cleavage under ABT-263 after QVD pretreatment,[3],prevented PARP and caspase cleavage
same,effect of qVD on ABT-263 mediated change in ER molecules,"[4]; Mel270, QVD-OPh 20 μM",did not impact
same,effect of qVD on ABT-263 cytotoxicity,[5],protective effect
CC1(C)CCC(CN2CCN(c3ccc(C(=O)NS(=O)(=O)c4ccc(NCC5CCOCC5)c([N+](=O)[O-])c4)c(Oc4cnc5[nH]ccc5c4)c3)CC2)=C(c2ccc(Cl)cc2)C1 [ABT-199],proliferation inhibition,"[6]; OMM1 cells, data not shown",15%
tunicamycin,CHOP stimulation,[7],able to stimulate CHOP
CN(C)CC[C@H](CSc1ccccc1)Nc1ccc(S(=O)(=O)NC(=O)c2ccc(N3CCN(Cc4ccccc4-c4ccc(Cl)cc4)CC3)cc2)cc1[N+](=O)[O-] [ABT-737],proliferation,[6]; OMM1 metastatic melanoma cells,strongly reduced proliferation
same,proliferation,[8],strongly reduced proliferation
same,"proliferation, response of primary melanoma cells",[9],highly resistant
Cn1cc(-c2ccc3c(c2)CCN3C(=O)Cc2cccc(C(F)(F)F)c2)c2c(N)ncnc21 [GSK2606414],"viable cells, alone",[10],no effect
same,sensitivity of 92.1 cells to ABT-263 with GSK2606414,[11],resensitized
same,CHOP and ATF4 accumulation,"[4]; cell line not stated, data not shown",inhibited CHOP and ATF4 accumulation
